According to article PMC7486443, “Generation of Phenothiazine with Potent Anti-TLK1 Activity for Prostate Cancer Therapy” (iScience, 2020):

Tests used:
Experiment in all cases: biochemical
Parameters in all cases: DiscoverX KINOMEscan scanMAX competition binding panel, single concentration, percent of control; remaining binding: dose or concentration left out as unconfirmed
Settings in all cases: KINOMEscan binding, percent of control; read-out: Table S4_SCANMAX REPORT - related to Fig. 1 / Percent Control
[1] = target: PRKD1 (Homo sapiens, UniProt Q15139)
Chain of PRKD1 (Q15139 whole entry): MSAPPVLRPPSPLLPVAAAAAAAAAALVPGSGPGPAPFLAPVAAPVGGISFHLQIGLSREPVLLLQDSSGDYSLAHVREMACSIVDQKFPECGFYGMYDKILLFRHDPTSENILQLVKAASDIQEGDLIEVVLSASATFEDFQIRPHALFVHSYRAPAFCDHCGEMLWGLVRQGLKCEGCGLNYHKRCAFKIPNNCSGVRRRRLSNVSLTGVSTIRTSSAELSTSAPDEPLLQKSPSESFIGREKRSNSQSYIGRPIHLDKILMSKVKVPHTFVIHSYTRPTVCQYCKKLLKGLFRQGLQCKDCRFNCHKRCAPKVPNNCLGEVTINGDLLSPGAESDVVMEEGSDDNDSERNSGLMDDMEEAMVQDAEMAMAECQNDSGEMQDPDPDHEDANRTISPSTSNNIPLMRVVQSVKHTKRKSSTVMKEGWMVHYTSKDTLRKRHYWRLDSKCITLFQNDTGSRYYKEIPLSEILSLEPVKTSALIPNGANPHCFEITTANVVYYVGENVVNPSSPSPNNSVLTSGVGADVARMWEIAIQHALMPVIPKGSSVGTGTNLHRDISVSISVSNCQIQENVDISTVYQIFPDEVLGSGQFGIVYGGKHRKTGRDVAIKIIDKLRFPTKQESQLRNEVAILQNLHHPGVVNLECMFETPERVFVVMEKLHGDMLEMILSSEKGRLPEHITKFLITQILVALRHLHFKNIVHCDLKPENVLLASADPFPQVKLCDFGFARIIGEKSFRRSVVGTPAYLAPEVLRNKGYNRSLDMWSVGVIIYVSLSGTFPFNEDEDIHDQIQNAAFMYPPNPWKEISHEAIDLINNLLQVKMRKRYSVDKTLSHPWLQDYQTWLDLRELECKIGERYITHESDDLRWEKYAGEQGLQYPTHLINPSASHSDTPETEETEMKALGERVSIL

[2] = target: PKNB(M.tuberculosis) (Mycobacterium tuberculosis, UniProt P9WI81)
[3] = target: T1, PFCDPK1(P.falciparum) (Plasmodium falciparum, UniProt P62344)
T1 construct: gene CDPK1
T1 sequence (P62344 whole entry): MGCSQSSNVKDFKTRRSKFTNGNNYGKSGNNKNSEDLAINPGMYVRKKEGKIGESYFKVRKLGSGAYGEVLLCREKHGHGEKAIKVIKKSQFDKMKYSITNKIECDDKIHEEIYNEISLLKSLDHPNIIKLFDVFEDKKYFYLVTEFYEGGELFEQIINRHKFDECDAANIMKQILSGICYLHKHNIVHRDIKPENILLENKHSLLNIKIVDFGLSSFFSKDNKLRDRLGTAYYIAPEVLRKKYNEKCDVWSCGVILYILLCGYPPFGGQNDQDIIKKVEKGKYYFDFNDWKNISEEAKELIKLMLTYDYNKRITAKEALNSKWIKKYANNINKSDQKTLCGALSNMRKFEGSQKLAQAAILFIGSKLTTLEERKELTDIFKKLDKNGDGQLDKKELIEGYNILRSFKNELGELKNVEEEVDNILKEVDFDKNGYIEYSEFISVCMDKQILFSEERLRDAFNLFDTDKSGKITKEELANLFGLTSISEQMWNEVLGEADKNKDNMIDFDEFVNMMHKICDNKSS

[4] = target: T2, SNARK (Homo sapiens, UniProt Q9H093)
T2 construct: gene NUAK2

[5] = target: FRK (Homo sapiens, UniProt P42685)
Chain of FRK (P42685 whole entry): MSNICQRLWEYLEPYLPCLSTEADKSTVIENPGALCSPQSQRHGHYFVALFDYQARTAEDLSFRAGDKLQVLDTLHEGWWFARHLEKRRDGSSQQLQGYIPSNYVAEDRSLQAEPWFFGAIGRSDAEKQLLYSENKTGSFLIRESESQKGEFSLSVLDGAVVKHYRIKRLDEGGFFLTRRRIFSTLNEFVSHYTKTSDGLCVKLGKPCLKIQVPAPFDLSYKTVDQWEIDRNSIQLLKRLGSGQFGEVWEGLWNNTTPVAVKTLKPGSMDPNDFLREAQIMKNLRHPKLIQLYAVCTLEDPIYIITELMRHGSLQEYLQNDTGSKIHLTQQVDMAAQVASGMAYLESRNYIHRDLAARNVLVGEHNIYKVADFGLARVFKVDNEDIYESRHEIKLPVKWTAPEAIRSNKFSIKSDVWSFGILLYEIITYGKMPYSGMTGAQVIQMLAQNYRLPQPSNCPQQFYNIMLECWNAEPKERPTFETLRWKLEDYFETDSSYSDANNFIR

[6] = target: TEC (Homo sapiens, UniProt P42680)
[7] = target: BMX (Homo sapiens, UniProt P51813)
[8] = target: GAK (Homo sapiens, UniProt O14976)
Chain of GAK (O14976 whole entry): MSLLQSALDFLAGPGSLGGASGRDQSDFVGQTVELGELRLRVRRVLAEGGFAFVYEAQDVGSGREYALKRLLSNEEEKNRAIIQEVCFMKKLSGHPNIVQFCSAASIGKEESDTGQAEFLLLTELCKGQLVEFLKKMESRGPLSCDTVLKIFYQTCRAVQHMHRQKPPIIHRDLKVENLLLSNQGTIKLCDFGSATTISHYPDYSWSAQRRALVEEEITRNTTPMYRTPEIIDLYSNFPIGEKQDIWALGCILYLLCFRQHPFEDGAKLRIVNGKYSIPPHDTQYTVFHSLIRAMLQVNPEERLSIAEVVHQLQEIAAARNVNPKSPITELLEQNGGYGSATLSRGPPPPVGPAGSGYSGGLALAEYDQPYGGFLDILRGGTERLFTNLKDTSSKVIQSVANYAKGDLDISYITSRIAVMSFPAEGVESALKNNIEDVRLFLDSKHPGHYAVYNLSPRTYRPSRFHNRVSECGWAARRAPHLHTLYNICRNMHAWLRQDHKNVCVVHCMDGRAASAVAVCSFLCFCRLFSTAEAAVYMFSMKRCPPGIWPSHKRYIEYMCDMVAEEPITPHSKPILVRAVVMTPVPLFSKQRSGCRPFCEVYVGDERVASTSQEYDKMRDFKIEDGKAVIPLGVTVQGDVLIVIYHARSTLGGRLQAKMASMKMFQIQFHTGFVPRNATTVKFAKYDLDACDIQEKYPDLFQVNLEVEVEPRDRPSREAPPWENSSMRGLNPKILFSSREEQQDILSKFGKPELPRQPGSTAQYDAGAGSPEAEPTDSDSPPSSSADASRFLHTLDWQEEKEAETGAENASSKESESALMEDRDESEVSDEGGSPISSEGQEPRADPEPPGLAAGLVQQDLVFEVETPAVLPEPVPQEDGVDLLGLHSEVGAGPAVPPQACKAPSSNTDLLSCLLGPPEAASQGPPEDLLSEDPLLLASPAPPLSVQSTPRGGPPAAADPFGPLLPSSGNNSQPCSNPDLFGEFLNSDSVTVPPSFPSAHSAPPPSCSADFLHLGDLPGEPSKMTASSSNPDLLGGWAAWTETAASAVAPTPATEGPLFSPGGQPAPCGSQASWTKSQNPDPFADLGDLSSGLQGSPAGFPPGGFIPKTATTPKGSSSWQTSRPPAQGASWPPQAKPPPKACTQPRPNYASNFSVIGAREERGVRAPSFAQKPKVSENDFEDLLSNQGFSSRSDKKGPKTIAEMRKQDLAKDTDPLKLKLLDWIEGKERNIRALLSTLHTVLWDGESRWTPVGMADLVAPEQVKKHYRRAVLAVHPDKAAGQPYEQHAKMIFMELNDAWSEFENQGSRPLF

[9] = target: T3, p38-alpha (Homo sapiens, UniProt Q16539)
T3 construct: gene MAPK14

[10] = target: TAOK3 (Homo sapiens, UniProt Q9H2K8)
[11] = target: FER (Homo sapiens, UniProt P16591)
Chain of FER (P16591 whole entry): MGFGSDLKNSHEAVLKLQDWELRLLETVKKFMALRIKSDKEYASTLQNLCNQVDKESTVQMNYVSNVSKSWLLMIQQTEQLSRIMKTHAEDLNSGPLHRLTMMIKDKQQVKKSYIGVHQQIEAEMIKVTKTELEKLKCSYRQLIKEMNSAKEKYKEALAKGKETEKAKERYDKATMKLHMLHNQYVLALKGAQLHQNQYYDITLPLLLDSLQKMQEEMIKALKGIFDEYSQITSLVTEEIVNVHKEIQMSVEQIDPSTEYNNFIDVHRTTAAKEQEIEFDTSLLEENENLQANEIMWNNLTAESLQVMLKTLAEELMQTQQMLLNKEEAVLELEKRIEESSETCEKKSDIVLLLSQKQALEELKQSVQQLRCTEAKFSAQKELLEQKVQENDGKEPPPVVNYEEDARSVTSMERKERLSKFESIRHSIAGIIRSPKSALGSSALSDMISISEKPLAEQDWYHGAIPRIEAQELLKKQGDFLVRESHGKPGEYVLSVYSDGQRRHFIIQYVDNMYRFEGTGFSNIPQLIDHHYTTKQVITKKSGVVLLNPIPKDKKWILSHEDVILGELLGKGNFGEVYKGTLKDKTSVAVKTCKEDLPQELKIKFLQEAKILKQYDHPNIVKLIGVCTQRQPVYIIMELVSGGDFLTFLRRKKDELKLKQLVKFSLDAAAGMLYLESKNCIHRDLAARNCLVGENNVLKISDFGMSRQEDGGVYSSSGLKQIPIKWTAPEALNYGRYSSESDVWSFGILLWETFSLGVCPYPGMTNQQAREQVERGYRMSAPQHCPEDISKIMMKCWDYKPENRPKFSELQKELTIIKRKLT

[12] = target: AKT3 (Homo sapiens, UniProt Q9Y243)
[13] = target: T4, ABL1(F317I)-nonphosphorylated (Homo sapiens, UniProt P00519, F317I)
T4 construct: nonphosphorylated

[14] = target: PIM3 (Homo sapiens, UniProt Q86V86)
[15] = target: T5, DCAMKL1 (Homo sapiens, UniProt O15075)
T5 construct: gene DCLK1

[16] = target: PIK3CA(E542K) (Homo sapiens, UniProt P42336, E542K)
[17] = target: T6, BRK (Homo sapiens, UniProt Q13882)
T6 construct: gene PTK6
T6 sequence (Q13882 whole entry): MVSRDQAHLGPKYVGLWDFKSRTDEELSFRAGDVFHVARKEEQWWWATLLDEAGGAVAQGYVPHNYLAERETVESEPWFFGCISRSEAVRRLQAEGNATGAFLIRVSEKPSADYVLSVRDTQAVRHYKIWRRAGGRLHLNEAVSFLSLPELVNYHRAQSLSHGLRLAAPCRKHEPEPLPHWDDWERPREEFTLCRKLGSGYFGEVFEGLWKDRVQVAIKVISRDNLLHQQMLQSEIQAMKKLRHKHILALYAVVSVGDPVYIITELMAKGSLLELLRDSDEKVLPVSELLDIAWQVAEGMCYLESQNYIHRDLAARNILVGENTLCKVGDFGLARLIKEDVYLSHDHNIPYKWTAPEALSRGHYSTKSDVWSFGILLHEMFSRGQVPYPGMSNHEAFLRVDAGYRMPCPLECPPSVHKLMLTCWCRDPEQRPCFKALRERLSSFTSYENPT

[18] = target: T7, FAK (Homo sapiens, UniProt Q05397)
T7 construct: gene PTK2

## c1ccc2c(c1)Sc1ccccc1N2CCN1CCOCC1 [J54]
[1]
  remaining binding: 97%
[2]
  remaining binding: 87%
[3]
  remaining binding: 100%
[4]
  remaining binding: 99%
[5]
  remaining binding: 100%
[6]
  remaining binding: 100%
[7]
  remaining binding: 100%
[8]
  remaining binding: 95%
[9]
  remaining binding: 100%
[10]
  remaining binding: 100%
[11]
  remaining binding: 100%
[12]
  remaining binding: 84%
[13]
  remaining binding: 92%
[14]
  remaining binding: 47%
[15]
  remaining binding: 100%
[16]
  remaining binding: 100%
[17]
  remaining binding: 100%
[18]
  remaining binding: 92%
